{
  "source": "patent US20250320397A1",
  "about": "“NON-PFAS REFRIGERANTS AND METHODS OF COOLING ELECTRONICS” (Honeywell International Inc., priority 2024, published 2025)",
  "key": {"[1]": {"experiment": "Dielectric constant measured with Agilent 85070 Dielectric Probe (Example 2)", "format": "physicochemical", "settings": "ambient pressure, room temperature (approximately 23° C.); for Dielectric Constant (Dk): Table 3; for Dk: Table 5, probe calibrated 1 GHz to 20 GHz", "procedure": "“Dielectric Constant” means the dielectric constant as measured in accordance with ASTM D150-11 statically and at room temperature.\n(§1) The boiling point (“BP”) of HFO-1336pyy and HFO-1336eyc were determined and the results are reported below in Table 5. The dielectric constant (“Dk”) of HFO-1336pyy and HFO-1336eyc(E) were measured, whereas the Dk of HFO*1336eyc (Z) was calculated using the Kirkwood model as described in Harvey, A. H. and Lemmon, E. W., International Journal of Thermophysics, Vol. 26, No. 1, 2005. The measured dielectric property were determined using the Agilent 85070 Dielectric Probe. All measurements were made at ambient pressure and room temperature (approximately 23° C.). Prior to making measurements, the system was calibrated from 1 GHz to 20 GHz with an open circuit, a short circuit, and DI water (@22.4° C.) standard. The accuracy of the probe is given as: Dielectric constant, er′=er′+/−0.05|er*| with er″=er″+/−0.05|er*| and (loss=er″/er′)."}, "[2]": {"experiment": "Boiling point determination (Example 2)", "format": "physicochemical", "settings": "for Bp: Table 3, approximate physical properties; for BP: Table 5", "procedure": "as §1"}, "[3]": {"source_text": "This is experimentally determined where a liquid spill is simulated by pouring the liquid of interest into a watch glass. The flammability of, primarily, a single component or a blend is characterized throughout the evaporation of the puddle to dryness. […] The watch glass test is a conservative test because no external heat is applied to the watch glass, which is chilled by the evaporating solvent. The cold watch glass acts as a condenser for the vapors of higher boiling point blend components. In the case where a flammable component is high boiling, its concentration increases throughout the evaporation time, rendering the mixture more flammable than it would be under temperature-controlled blend segregation experiments.\nThis was experimentally determined where a liquid spill was simulated by pouring HFO-1336pyy(Z) into a watch glass. The flammability was characterized throughout the evaporation of the puddle to dryness."}},
  "data": [
    {"smiles": "F/C(=C(\\F)C(F)F)C(F)F", "note": "[Compound 1, (Z)-1,1,2,3,4,4-hexafluorobut-2-ene]", "values": [
      {"measurement": "Dielectric Constant (Dk)", "setting": "[1]", "value": 6.72},
      {"measurement": "Dk", "setting": "[1]", "value": 6.72},
      {"measurement": "Bp", "setting": "[2]", "value": 58.2, "unit": "°C"},
      {"measurement": "BP", "setting": "[2]", "value": 58.2, "unit": "°C"}
    ]},
    {"smiles": "F/C(=C(/F)C(F)F)C(F)F", "note": "[Compound 2, (E)-1,1,2,3,4,4-hexafluorobut-2-ene]", "values": [
      {"measurement": "Dielectric Constant (Dk)", "setting": "[1]", "value": 4.34},
      {"measurement": "Dk", "setting": "[1]", "value": 4.34},
      {"measurement": "flammability (flame on open flame passed across liquid surface)", "setting": "[3]", "value": "no flame was observed"},
      {"measurement": "Bp", "setting": "[2]", "value": 51.7, "unit": "°C"},
      {"measurement": "BP", "setting": "[2]", "value": 51.7, "unit": "°C"}
    ]},
    {"smiles": "F/C=C(\\F)C(F)(F)C(F)F", "note": "[Compound 3, (Z)-1,2,3,3,4,4-hexafluorobut-1-ene]", "values": [
      {"measurement": "flammability (flame on open flame passed across liquid surface)", "setting": "[3]", "value": "no flame is observed"},
      {"measurement": "Bp", "setting": "[2]", "value": 40.4, "unit": "°C"},
      {"measurement": "BP", "setting": "[2]", "value": 40.4, "unit": "°C"}
    ]},
    {"smiles": "F/C=C(/F)C(F)(F)C(F)F", "note": "[Compound 4, (E)-1,2,3,3,4,4-hexafluorobut-1-ene]", "values": [
      {"measurement": "Dielectric Constant (Dk)", "setting": "[1]", "value": 5.09},
      {"measurement": "Dk", "setting": "[1]", "value": 5.09},
      {"measurement": "flammability (flame on open flame passed across liquid surface)", "setting": "[3]", "value": "no flame was observed"},
      {"measurement": "Bp", "setting": "[2]", "value": 45.3, "unit": "°C"},
      {"measurement": "BP", "setting": "[2]", "value": 45.3, "unit": "°C"}
    ]}
  ]
}
